Test results from publication PMC11725774 (Cancer Research Communications, 2025).
Read-outs that look alike come from different tables or passages of the source.

Assays:
[1] = test system: TUS/R line 2 (MOLM-14); assay: Growth inhibition of TUS-resistant subline; format: cell-based; conditions: Homo sapiens, MOLM-14, read-out: IC50 (nmol/L), Mean ± SEM, TUS/R line 2
[2] = test system: TUS/R line 1 (MOLM-14); assay: Growth inhibition of TUS-resistant subline; format: cell-based; conditions: Homo sapiens, MOLM-14, read-out: IC50 (nmol/L), Mean ± SEM, TUS/R line 1
[3] = Repeat daily dose toxicity in dogs; format: in vivo
Description: In both species, all adverse events were reversible. There were no alterations in clinical chemistry parameters. Neuropharmacology and respiratory function assessment in rats disclosed no concerns.

[4] = test system: p-JAK1, p-JAK2, p-STAT3, p-STAT5 in MOLM-14 cells cocultured with HS-5 cells; assay: HS-5 stromal coculture Western blot; format: cell-based, human; conditions: concentrations <1 μmol/L; MOLM-14 cocultured with HS-5
Description: Cells were treated as described in respective Results sections and then lysed with RIPA buffer. Western blot analyses were performed with antibodies capable of detecting both total and phosphorylated forms of each kinase purchased from commercial sources. Information on the antibodies used is provided in the Supplementary Materials section.
HS-5 cells were obtained from ATCC. The HS-5 stromal cells (5 × 10^5 cells/well) were seeded into six-well plates, and 24 hours later, MOLM-14 cells (1 × 10^6 cells/well) were seeded into the same plate and then cultured for 48 hours. Cultures were then exposed to test drugs for 2 hours, harvested, and lysates were prepared for Western blotting. For stimulation studies, MOLM-14 or KG-1a cells were seeded at 5.0 to 6.0 × 10^6 cells/well into six-well plates in 2 mL medium. Cells were stimulated with 500 μg/mL fibrinogen (Sigma-Aldrich, Catalog # F3879) for 1 hour at 37°C. Alternatively, they were treated with 10 μg/mL IgG (Invitrogen, Catalog # 31154) for 10 minutes on ice followed by IgG cross-linking with 1 μg/mL anti–human IgG antibody for 10 minutes on ice. After these incubations, the media were removed and the cells were washed with cold PBS, lysed, and analyzed by Western blotting.

[5] = test system: BIM in parental MOLM-14 cells; assay: Western blot of apoptotic proteins; conditions: 75 nmol/L TUS, 48-hour exposure
[6] = test system: CYP3A; assay: CYP inhibition; format: in vitro ADME; conditions: human
[7] = test system: MOLM-13 cells inoculated orthotopically; assay: Orthotopic AML xenograft survival; format: in vivo, NOD/SCID mice; conditions: oral TUS 30 mg/kg every day; vehicle 37 days
Description: (§1) For subcutaneous inoculation, MV-4-11 and MOLM-14 FLT3-ITD/F691L cells were mixed with BD Matrigel Matrix (1:0.5 ratio), and 2 to 5 × 10^6 cells in 0.15 mL were inoculated subcutaneously in NOD/SCID mice. Tumor size was assessed using a Vernier caliper 2 to 3 times weekly and volume was calculated using the formula for an ellipsoid sphere. For orthotopic inoculation, MOLM-14-Luc/GFP cells (2 × 10^6 cells in 0.03 mL PBS) or MV-4-11-Luc and MOLM-13-Luc cells (1 × 10^6 cells in 50 μL Hank’s balanced salt solution) were injected into the left tibia of NOD/SCID mice. Tumor growth was monitored weekly by bioluminescence imaging using an IVIS Lumina Series III In vivo imaging system (PerkinElmer Inc.). The Institutional Animal Care and Use Committee of the Hanmi Research Center approved the animal study protocol.
(§2) For both subcutaneous and bone marrow orthotopic models, after confirming tumor formation by palpation or bioluminescence imaging, mice were randomly assigned into experimental groups.
(§3) A P value less than 0.05 was considered statistically significant.

[8] = test system: MV-4-11 cells inoculated orthotopically; assay: Orthotopic AML xenograft survival; format: in vivo, NOD/SCID mice; conditions: oral TUS 30 mg/kg every day; vehicle 42 days
Description: as §1, §2, §3

[9] = test system: MOLM-14 cells inoculated orthotopically; assay: Orthotopic AML xenograft survival; format: in vivo, NOD/SCID mice; conditions: oral TUS 30 mg/kg every day; vehicle 17 days
Description: as §1, §2, §3

[10] = Pharmacokinetics in dog; format: in vivo
[11] = test system: MOLM-13 cells; assay: Growth inhibition of AML cell line; format: cell-based; conditions: Homo sapiens, mean ± SD
Description: (§4) MV-4-11 cells expressing NRAS^G12D were prepared by transduction with a lentiviral vector encoding the NRAS^G12D mutation. Assays using a panel of parental Ba/F3 into which an additional copy of either WT or a mutant form of FLT3 was introduced were performed at Kyinno Biotechnology Co., Ltd. All cell lines were short tandem repeat authenticated at ATCC or at DSMZ when originally obtained, and no further authentication was done after receipt of the cells in the laboratory.
(§5) Assays using Ba/F3 cells expressing WT and mutant forms of FLT3 were performed by Kyinno Biotechnology. The cells were cultured in the medium recommended by the source for each cell line. Growth inhibition assays were performed using either Cell Titer 96 Aqueous One Solution Cell Proliferation assay (Promega, # G3581) or CCK8 (Dojindo, # CK-04). […] IC50 values were determined from growth inhibition curves fitted using GraphPad Prism and a nonlinear regression model with sigmoidal dose response. Unless otherwise indicated, data are presented as mean ± SEM.

[12] = Metabolism by liver microsomes; format: in vitro ADME, human
[13] = biological target: T1, TAK1 (Homo sapiens, UniProt O43318); assay: Broad kinase inhibition screen, recombinant kinase; format: biochemical; conditions: broad kinase inhibition screens
T1 construct: purchased Thermo Fisher Scientific or Reaction Biology, Inc. (screening service)
Description: (§6) Data from these screens are available on request.

[14] = biological target: T2, SYK (Homo sapiens, UniProt P43405); assay: Broad kinase inhibition screen, recombinant kinase; format: biochemical; conditions: broad kinase inhibition screens
T2 construct: purchased Thermo Fisher Scientific or Reaction Biology, Inc. (screening service)
Description: as §6

[15] = biological target: T3, JAK1 (Homo sapiens, UniProt P23458); assay: Broad kinase inhibition screen, recombinant kinase; format: biochemical; conditions: broad kinase inhibition screens
T3 construct: purchased Thermo Fisher Scientific or Reaction Biology, Inc. (screening service)
Description: as §6

[16] = biological target: T4, JAK2 (Homo sapiens, UniProt O60674); assay: Broad kinase inhibition screen, recombinant kinase; format: biochemical; conditions: broad kinase inhibition screens
T4 construct: purchased Thermo Fisher Scientific or Reaction Biology, Inc. (screening service)
Description: as §6

[17] = test system: TUS/R MOLM-14 cells; assay: Growth inhibition of TUS-resistant sublines versus parental; format: cell-based, human; conditions: Homo sapiens, MOLM-14; read-out: IC50, cells with acquired resistance
[18] = biological target: CYP2C9 (Homo sapiens, UniProt P11712); assay: CYP inhibition; format: in vitro ADME
[19] = test system: MOLM-14 cells (parental); assay: Growth inhibition of AML cell line; format: cell-based, human; conditions: Homo sapiens, MOLM-14
Description: as §4, §5

T3 sequence (P23458 whole entry): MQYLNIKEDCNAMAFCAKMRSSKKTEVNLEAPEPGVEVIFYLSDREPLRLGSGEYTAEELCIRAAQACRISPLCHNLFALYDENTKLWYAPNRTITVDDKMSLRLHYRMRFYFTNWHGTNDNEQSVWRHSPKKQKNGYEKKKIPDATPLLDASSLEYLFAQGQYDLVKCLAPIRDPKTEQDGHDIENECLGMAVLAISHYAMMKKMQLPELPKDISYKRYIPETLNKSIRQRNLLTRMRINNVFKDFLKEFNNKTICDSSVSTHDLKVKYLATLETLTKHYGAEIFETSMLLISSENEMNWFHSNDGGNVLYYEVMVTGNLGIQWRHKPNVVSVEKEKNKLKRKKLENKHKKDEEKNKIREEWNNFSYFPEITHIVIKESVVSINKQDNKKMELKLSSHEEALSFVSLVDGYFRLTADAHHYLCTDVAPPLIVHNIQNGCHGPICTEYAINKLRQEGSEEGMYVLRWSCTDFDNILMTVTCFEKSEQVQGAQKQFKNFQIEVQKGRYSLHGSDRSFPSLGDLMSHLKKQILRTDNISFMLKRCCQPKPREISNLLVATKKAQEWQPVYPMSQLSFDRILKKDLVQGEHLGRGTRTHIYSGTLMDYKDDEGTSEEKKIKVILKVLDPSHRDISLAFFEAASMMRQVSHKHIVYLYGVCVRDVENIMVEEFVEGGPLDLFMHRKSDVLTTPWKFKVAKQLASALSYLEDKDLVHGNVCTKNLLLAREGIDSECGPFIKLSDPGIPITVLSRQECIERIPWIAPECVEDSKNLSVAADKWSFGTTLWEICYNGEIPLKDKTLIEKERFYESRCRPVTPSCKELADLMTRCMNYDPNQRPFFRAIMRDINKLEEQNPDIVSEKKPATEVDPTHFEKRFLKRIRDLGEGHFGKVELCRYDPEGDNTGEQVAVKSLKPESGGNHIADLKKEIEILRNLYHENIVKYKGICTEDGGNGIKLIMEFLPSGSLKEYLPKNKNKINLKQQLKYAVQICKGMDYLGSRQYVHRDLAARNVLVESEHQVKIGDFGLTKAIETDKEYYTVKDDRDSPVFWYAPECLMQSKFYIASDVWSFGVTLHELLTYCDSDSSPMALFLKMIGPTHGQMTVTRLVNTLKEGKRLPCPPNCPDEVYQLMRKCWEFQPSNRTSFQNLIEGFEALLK
T1 sequence (O43318 1-303 limits assumed): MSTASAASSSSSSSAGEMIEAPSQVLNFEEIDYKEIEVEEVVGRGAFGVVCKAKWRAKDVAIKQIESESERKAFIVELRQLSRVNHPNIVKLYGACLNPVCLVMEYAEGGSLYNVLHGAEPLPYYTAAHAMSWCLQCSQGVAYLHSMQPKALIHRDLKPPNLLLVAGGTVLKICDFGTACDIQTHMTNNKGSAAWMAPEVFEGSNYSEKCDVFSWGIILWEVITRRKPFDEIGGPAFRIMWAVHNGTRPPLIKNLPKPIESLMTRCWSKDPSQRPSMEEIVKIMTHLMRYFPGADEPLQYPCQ
T1 sequence (Q15750 437-504 partner limits assumed): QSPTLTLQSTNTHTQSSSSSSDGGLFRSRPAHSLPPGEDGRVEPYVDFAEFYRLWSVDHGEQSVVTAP
CYP2C9, sequence (P11712 whole entry): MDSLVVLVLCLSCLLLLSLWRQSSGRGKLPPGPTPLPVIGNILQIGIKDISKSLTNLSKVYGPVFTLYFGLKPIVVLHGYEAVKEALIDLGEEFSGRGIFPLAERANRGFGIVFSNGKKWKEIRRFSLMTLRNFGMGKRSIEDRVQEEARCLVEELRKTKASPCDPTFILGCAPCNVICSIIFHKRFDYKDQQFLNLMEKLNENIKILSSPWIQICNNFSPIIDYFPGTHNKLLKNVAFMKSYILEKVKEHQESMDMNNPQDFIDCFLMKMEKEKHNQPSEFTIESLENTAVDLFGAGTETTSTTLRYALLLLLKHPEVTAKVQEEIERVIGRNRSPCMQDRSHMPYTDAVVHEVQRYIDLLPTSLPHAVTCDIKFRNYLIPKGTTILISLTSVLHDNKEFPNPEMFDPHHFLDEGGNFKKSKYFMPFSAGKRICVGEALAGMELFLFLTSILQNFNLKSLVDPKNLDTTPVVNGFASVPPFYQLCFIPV
T4 sequence (O60674 whole entry): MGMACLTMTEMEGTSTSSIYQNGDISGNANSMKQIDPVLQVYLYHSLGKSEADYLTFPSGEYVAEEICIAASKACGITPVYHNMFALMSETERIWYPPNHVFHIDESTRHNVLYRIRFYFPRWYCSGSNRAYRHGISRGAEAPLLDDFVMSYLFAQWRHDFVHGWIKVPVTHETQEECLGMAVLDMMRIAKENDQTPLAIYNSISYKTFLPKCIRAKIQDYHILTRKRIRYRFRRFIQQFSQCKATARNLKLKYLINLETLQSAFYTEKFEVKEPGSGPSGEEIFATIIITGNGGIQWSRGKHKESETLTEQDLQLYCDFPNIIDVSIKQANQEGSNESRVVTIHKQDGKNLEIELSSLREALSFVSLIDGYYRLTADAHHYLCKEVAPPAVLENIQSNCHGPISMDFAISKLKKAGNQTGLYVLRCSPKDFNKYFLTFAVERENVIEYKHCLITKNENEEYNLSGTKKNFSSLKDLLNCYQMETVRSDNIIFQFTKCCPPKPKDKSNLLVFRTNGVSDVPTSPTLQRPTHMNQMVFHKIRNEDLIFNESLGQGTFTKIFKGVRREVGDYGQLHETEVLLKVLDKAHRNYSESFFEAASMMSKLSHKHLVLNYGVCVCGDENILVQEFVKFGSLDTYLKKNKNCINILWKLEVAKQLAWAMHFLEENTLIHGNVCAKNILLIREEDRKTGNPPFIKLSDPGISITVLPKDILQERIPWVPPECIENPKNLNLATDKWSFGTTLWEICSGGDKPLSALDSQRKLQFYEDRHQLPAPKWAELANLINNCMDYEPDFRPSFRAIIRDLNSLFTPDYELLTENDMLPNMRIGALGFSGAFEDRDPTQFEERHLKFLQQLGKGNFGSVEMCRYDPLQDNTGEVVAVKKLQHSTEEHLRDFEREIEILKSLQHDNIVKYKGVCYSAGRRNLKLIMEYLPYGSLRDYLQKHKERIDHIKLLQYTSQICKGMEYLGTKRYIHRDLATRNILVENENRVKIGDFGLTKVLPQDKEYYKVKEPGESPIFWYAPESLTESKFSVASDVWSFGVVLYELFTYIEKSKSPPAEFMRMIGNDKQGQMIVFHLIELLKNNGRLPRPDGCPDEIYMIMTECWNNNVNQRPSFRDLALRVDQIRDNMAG

Cc1ccc2c(-c3nc(Nc4cc(CN5C[C@@H](C)N[C@@H](C)C5)cc(C5CC5)c4)ncc3Cl)c[nH]c2c1 [TUS, Tuspetinib]
IC50 [1]: 120 ± 29.4 nmol/L | IC50 [2]: 183 ± 69.5 nmol/L | main toxicity findings ([3]; dogs, repeat daily dose up to 4 weeks): leucocyte depletion, decreased thymus and spleen weights, and tremors | cardiovascular effects ([3]; single dose and 4-week dog toxicology studies): No treatment-related cardiovascular effects | inhibition of p-JAK1, p-JAK2, p-STAT3, or p-STAT5 [4]: Neither TUS nor gilteritinib inhibited | increase of BIM [5]: 10 fold | Ki [6]: < 1000 nM | median survival [7]: 75 days | median survival [8]: 147 days | median survival [9]: 65 days | dose proportionality of AUC [10]: linearly proportional to dose | bioavailability ([10]; in vivo, oral): 99% | GI50 [11]: 5.2 ± 0.9 nM | metabolism by human liver microsomes [12]: metabolized by human liver microsomes | IC50 [13]: 7 nM | IC50 [14]: 2.9 nM | IC50 [15]: 2.9 nM | IC50 [16]: 6.3 nM | IC50 [17]: 139 ± 38.6 nM | Ki [18]: < 1000 nM | IC50 ([19]; growth inhibition, three independent experiments, read-out: IC50 (nmol/L), Mean ± SEM, MOLM-14 parental): 2.3 ± 0.6 nmol/L | GI50 ([19]; mean ± SEM (Supplementary Table 6), read-out: GI50 (nM) Parental MOLM-14 (converted)): 2.3 ± 0.6 nM | GI50 ([19]; mean ± SD (Supplementary Table 4), read-out: GI50): 2.9 ± 1.2 nM
